Measured values published in US5324725A, “7-fused 2-(piperazinoalkyl) indole derivatives, intermediates and compositions thereof” (Kali-Chemie Pharma GmbH, priority 1991, dated 1994).

Target: T1, 5-lipoxygenase (Mus musculus, UniProt P48999)
T1 construct: A cell suspension containing peritoneal cells of male mice 8-10 weeks old was obtained; endogenous in cells; host or cells: mouse peritoneal macrophages (male mice 8-10 weeks old), zymosan-stimulated
T1 sequence (P48999 1-674): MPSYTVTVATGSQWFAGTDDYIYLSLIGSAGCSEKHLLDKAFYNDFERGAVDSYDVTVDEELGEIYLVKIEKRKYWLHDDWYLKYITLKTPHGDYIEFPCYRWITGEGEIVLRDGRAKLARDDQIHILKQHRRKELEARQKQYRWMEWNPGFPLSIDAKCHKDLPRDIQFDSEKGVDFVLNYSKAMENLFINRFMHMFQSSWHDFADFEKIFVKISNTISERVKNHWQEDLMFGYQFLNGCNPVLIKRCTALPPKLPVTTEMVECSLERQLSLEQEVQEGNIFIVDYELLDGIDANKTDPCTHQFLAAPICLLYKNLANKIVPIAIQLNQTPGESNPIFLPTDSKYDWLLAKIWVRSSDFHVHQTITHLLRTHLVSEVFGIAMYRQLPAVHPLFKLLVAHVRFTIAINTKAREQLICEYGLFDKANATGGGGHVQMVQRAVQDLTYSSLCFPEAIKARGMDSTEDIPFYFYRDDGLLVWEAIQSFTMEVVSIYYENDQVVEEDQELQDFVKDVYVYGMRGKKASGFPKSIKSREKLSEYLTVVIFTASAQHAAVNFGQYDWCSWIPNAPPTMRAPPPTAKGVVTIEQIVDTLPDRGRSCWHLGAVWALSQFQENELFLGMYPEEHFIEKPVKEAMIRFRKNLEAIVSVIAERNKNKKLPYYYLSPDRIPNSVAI
Assay: 5-lipoxygenase inhibition: release of LTC4 from zymosan-stimulated mouse peritoneal macrophage cells
Format: cell-based
Settings: 10^-5 mol/l, read-out: In vitro % inhibition effect on the release of LTC4
Source text: 5. In vitro determination of cyclooxygenase inhibition and 5-lipoxygenase inhibition.
After activation of the cell, arachidonic acid contained in cell membranes is metabolized in two ways. Leukotrienes, inter alia leukotriene C4, are formed under the action of the enzyme 5-lipoxygenase (5-LO), and prostanoids are formed under the action of the enzyme cyclooxygenase (CO). In in vitro systems, the metabolites are secreted from the cell.
To investigate the cyclooxygenase-inhibiting and the 5-lipoxygenase-inhibiting properties, the inhibitory effect of the test substances on the biosynthesis of the arachidonic acid derivatives leukotriene C4 (LTC4) and 6-ketoprostaglandin F1 α (6-keto-PGF1 α) is determined in vitro on mouse peritoneal macrophage cells. This was accomplished by determining the LTC4 and 6-keto-PGF1 α contents in a culture medium of mouse peritoneal macrophage cells by zymosan stimulation as described by Scott et al. (J. Exp. Med. 152 (1980), 324-335) and by Fradin et al. (Prostaglandins, 33 (1987), 579-589).
A cell suspension containing peritoneal cells of male mice 8-10 weeks old was obtained in a known manner. A commercially available cell culture solution (RPMI 1640 from Messrs. Gibco) was used to which heparin (I0 international units/ml) and antibiotics were added according to the recipe of Bonney et al. (Biochem. J. 176 (1978) 422-433). The cell suspension was adjusted to a cell concentration of 10^6 cells per ml and distributed uniformly on titer plates containing […] (wells). These were kept for two hours in a humidified incubator filled with air enriched with 7% CO2. Cells not adhering to the titer cell walls were then removed by washing. The remaining macrophage cells adhering to the walls were incubated for about 12 hours in a suspension medium to which 0.1% bovine serum albumin (BSA) were added. The suspension medium was then replaced by a Hanks balanced salt solution (HBSS) containing 10 mM Hepes (hydroxyethyl-piperazinoethanesulfonic acid), to which a 0.1% strength solution of the test substances in aqueous, 1% strength dimethylformamide or only the solvent had been added. After 15 minutes the arachidonic acid metabolism was stimulated by adding 10 particles of zymosan (=glycoproteinmixture, isolated from cell walls of beer yeast, Saccharomyces cerevisiae, manufactured by Sigma Chemical Co., Munich) per titer cell. After 2 hours, samples of each of the supernatant liquids were investigated for their 6-keto-PGF1 α and LTC4 contents by means of an enzyme immunoassay (EIA) carried out by the method of Pradelles et al. (Analytical Chem. 57 (1985), 1170-1173). The determination of LTC4 and the determination of 6-keto-PGF1 α were each carried out in comparison with a comparative scale on suitable dilutions of the samples (1:50 to 1:250 for the LTC4 determination and 1:250 to 1:1250 for the 6-keto-PGF1 α determination). To determine the inhibitory effect of a 10^-5 molar concentration of the compounds, the amount of reference eicosanoids was determined and the inhibitory effect was calculated from this in % inhibition compared to the measurements of the zymosan controls.

inhibition at 10 µM [%] | SMILES
17 | Cc1ccnc(N2CCN(CCc3c(CO)n4c5c(cccc35)CCC4)CC2)c1 [Example 16, 5,6-dihydro-2-hydroxymethyl-1-{2-[4-(4-methylpyridin-2-yl)piperazin-1-yl]ethyl}-4H-pyrrolo[3,2,1-ij]quinoline]
66 | CC(=O)c1cc2c3c(c1)c(CCN1CCN(c4cc(C)ccn4)CC1)c(C)n3CCC2 [Example 67]
99 | Cc1ccnc(N2CCN(CCc3c(-c4ccc(O)cc4)n4c5c(cccc35)CCC4)CC2)c1 [Example 8, 2-(4-hydroxyphenyl)-1-{2-[4-(4-methylpyridin-2-yl)piperazin-1-yl]ethyl}-5,6-dihydro-4H-pyrrolo[3,2,1-ij]quinoline]
51 | Cc1ccnc(N2CCN(CCc3c(C)n4c5c(c(C(O)C(C)C)ccc35)SCC4)CC2)c1 (stereo not shown) [Example 89]
94 | C=CCCC1CCc2cccc3c(CCN4CCN(c5cc(C)ccn5)CC4)c(C)n1c23 (stereo not shown) [Example 62]
33 | Cc1ccnc(N2CCN(CCc3c(C)n4c5c(cc(C(=O)c6ccccc6)cc35)CCC4)CC2)c1 [Example 66]
13 | Cc1c(CCN2CCN(c3ccccn3)CC2)c2cccc3c2n1CCC3 [Example 37]
